Assay results as given in ChEMBL document CHEMBL4152291, “Synthesis and biological activities of dithiocarbamates containing 2(5H)-furanone-piperazine” (Eur J Med Chem, 2018).

Key:
[1] = Growth inhibition of human LO2 cells at 0.1 ug/ml after 72 hrs by MTT assay relative to control; assay type: cell-based, L02; details: read-out: GI
SMMC-7721 [2] = assay: Growth inhibition of human SMMC7721 cells at 0.01 ug/ml after 72 hrs by MTT assay relative to control; assay type: functional; details: SMMC-7721, 72 h, read-out: GI
SMMC-7721 [3] = assay: Growth inhibition of human SMMC7721 cells at 0.5 ug/ml after 72 hrs by MTT assay relative to control; assay type: functional; details: SMMC-7721, 72 h, read-out: GI
[4] = Growth inhibition of human LO2 cells at 5 ug/ml after 72 hrs by MTT assay relative to control; assay type: cell-based, L02; details: read-out: GI
HeLa [5] = assay: Cytotoxicity against human HeLa cells; assay type: functional, cell-based
[6] = Growth inhibition of human LO2 cells at 2.5 ug/ml after 72 hrs by MTT assay relative to control; assay type: cell-based, L02; details: read-out: GI
SMMC-7721 [7] = assay: Growth inhibition of human SMMC7721 cells at 2.5 ug/ml after 72 hrs by MTT assay relative to control; assay type: functional; details: SMMC-7721, 72 h, read-out: GI
[8] = Growth inhibition of human LO2 cells at 0.01 ug/ml after 72 hrs by MTT assay relative to control; assay type: cell-based, L02; details: read-out: GI
SMMC-7721 [9] = assay: Growth inhibition of human SMMC7721 cells at 0.1 ug/ml after 72 hrs by MTT assay relative to control; assay type: functional; details: SMMC-7721, 72 h, read-out: GI
[10] = Growth inhibition of human LO2 cells at 0.5 ug/ml after 72 hrs by MTT assay relative to control; assay type: cell-based, L02; details: read-out: GI
SMMC-7721 [11] = assay: Growth inhibition of human SMMC7721 cells at 5 ug/ml after 72 hrs by MTT assay relative to control; assay type: functional; details: SMMC-7721, 72 h, read-out: GI
SMMC-7721 [12] = assay: Induction of apoptosis in human SMMC7721 cells assessed as late apoptotic cells at 0.1 ug/ml after 72 hrs by Annexin-V-FITC/propidium iodide staining based flow cytometry (reference value: 3.34 to 3.62%); assay type: functional
HeLa [13] = assay: Growth inhibition of human HeLa cells at 50 ug/ml after 72 hrs by MTT assay relative to control; assay type: functional; details: read-out: GI
SMMC-7721 [14] = assay: Induction of apoptosis in human SMMC7721 cells assessed as live cells at 0.1 ug/ml after 72 hrs by Annexin-V-FITC/propidium iodide staining based flow cytometry (reference value: 92.87 to 93.39%); assay type: functional
HeLa [15] = assay: Cytotoxicity against human HeLa cells assessed as inhibition of cell proliferation after 72 hrs by MTT assay; assay type: functional, cell-based
HeLa [16] = assay: Growth inhibition of human HeLa cells at 100 ug/ml after 72 hrs by MTT assay relative to control; assay type: functional; details: read-out: GI
SMMC-7721 [17] = assay: Induction of apoptosis in human SMMC7721 cells assessed as necrotic cells at 5 ug/ml after 72 hrs by Annexin-V-FITC/propidium iodide staining based flow cytometry (reference value: 0.39 to 0.5%); assay type: functional
SMMC-7721 [18] = assay: Induction of apoptosis in human SMMC7721 cells assessed as late apoptotic cells at 0.5 ug/ml after 72 hrs by Annexin-V-FITC/propidium iodide staining based flow cytometry (reference value: 3.34 to 3.62%); assay type: functional
HeLa [19] = assay: Growth inhibition of human HeLa cells at 25 ug/ml after 72 hrs by MTT assay relative to control; assay type: functional; details: read-out: GI
SMMC-7721 [20] = assay: Induction of apoptosis in human SMMC7721 cells assessed as increase in early apoptotic cells after 72 hrs by Annexin-V-FITC/propidium iodide staining based flow cytometry; assay type: functional, cell-based
SMMC-7721 [21] = assay: Induction of apoptosis in human SMMC7721 cells assessed as necrotic cells at 0.5 ug/ml after 72 hrs by Annexin-V-FITC/propidium iodide staining based flow cytometry (reference value: 0.39 to 0.5%); assay type: functional
SMMC-7721 [22] = assay: Induction of apoptosis in human SMMC7721 cells assessed as live cells at 0.5 ug/ml after 72 hrs by Annexin-V-FITC/propidium iodide staining based flow cytometry (reference value: 92.87 to 93.39%); assay type: functional
SMMC-7721 [23] = assay: Induction of apoptosis in human SMMC7721 cells assessed as live cells at 5 ug/ml after 72 hrs by Annexin-V-FITC/propidium iodide staining based flow cytometry (reference value: 92.87 to 93.39%); assay type: functional
SMMC-7721 [24] = assay: Induction of apoptosis in human SMMC7721 cells assessed as late apoptotic cells at 5 ug/ml after 72 hrs by Annexin-V-FITC/propidium iodide staining based flow cytometry (reference value: 3.34 to 3.62%); assay type: functional
SMMC-7721 [25] = assay: Induction of apoptosis in human SMMC7721 cells assessed as early apoptotic cells at 0.5 ug/ml after 72 hrs by Annexin-V-FITC/propidium iodide staining based flow cytometry (reference value: 2.61 to 3.3%); assay type: functional
HeLa [26] = assay: Growth inhibition of human HeLa cells at 12.5 ug/ml after 72 hrs by MTT assay relative to control; assay type: functional; details: read-out: GI
SMMC-7721 [27] = assay: Induction of apoptosis in human SMMC7721 cells assessed as early apoptotic cells at 0.1 ug/ml after 72 hrs by Annexin-V-FITC/propidium iodide staining based flow cytometry (reference value: 2.61 to 3.3%); assay type: functional
HeLa [28] = assay: Growth inhibition of human HeLa cells at 6.25 ug/ml after 72 hrs by MTT assay relative to control; assay type: functional; details: read-out: GI
SMMC-7721 [29] = assay: Induction of apoptosis in human SMMC7721 cells assessed as necrotic cells at 0.1 ug/ml after 72 hrs by Annexin-V-FITC/propidium iodide staining based flow cytometry (reference value: 0.39 to 0.5%); assay type: functional
SMMC-7721 [30] = assay: Induction of apoptosis in human SMMC7721 cells assessed as increase in late apoptotic cells after 72 hrs by Annexin-V-FITC/propidium iodide staining based flow cytometry; assay type: functional, cell-based
SMMC-7721 [31] = assay: Induction of apoptosis in human SMMC7721 cells assessed as early apoptotic cells at 5 ug/ml after 72 hrs by Annexin-V-FITC/propidium iodide staining based flow cytometry (reference value: 2.61 to 3.3%); assay type: functional
L02 = assay: Cytotoxicity against human LO2 cells assessed as inhibition of cell proliferation after 72 hrs by MTT assay; assay type: cell-based; details: L02, 72 h

SMILES | inhibition at 72 h, 0.1 ug/ml [1] [%] | inhibition of growth at 0.01 µg/mL (SMMC-7721 [2]) [%] | inhibition of growth at 0.5 µg/mL (SMMC-7721 [3]) [%] | inhibition at 72 h, 5 ug/ml [4] [%] | inhibition at 72 h, 2.5 ug/ml [6] [%] | inhibition of growth at 2.5 µg/mL (SMMC-7721 [7]) [%] | inhibition at 72 h, 0.01 ug/ml [8] [%] | inhibition of growth at 0.1 µg/mL (SMMC-7721 [9]) [%] | inhibition at 72 h, 0.5 ug/ml [10] [%] | inhibition of growth at 5 µg/mL (SMMC-7721 [11]) [%] | inhibition of growth at 50 µg/mL (HeLa [13]) [%] | Activity (HeLa [15]) | IC50 (HeLa [15]) [nM] | inhibition of growth at 100 µg/mL (HeLa [16]) [%] | inhibition of growth at 25 µg/mL (HeLa [19]) [%] | inhibition of growth at 12.5 µg/mL (HeLa [26]) [%] | inhibition of growth at 6.25 µg/mL (HeLa [28]) [%] | also measured
Nc1ccn([C@@H]2O[C@H](CO)[C@@H](O)[C@@H]2O)c(=O)n1 [CYTARABINE] | 3.02 | 13 | 24 | 25.4 | 18.8 | 44.5 | -1.76 | 16.1 | 13.3 | 63.1 | – | – | – | – | – | – | – | IC50 (HeLa [5]): 950 nM
CC(C)[C@@H]1CC[C@@H](C)C[C@H]1O[C@H]1OC(=O)C(Br)=C1N1CCN(C(=S)SCc2ccccc2)CC1 | 7.48 | 9.09 | 20.9 | 25.8 | 15.6 | 39.2 | -3.31 | 17 | 15 | 75 | 46.4 | Dose-dependent effect | 260 | 45 | 43.5 | 37.5 | 32 | Activity (SMMC-7721 [12]): 5.56 - 7.39%; Activity (SMMC-7721 [14]): 85.91 - 89.74%; Activity (SMMC-7721 [17]): 7.72 - 9.59%; Activity (SMMC-7721 [18]): 8.98 - 11.36%; Activity (SMMC-7721 [20]): Dose-dependent effect; Activity (SMMC-7721 [21]): 2.17 - 4.01%; Activity (SMMC-7721 [22]): 81.84 - 83.6%; Activity (SMMC-7721 [23]): 64.53 - 65.54%; Activity (SMMC-7721 [24]): 18.99 - 20.66%; Activity (SMMC-7721 [25]): 4.01 - 5.07%; Activity (SMMC-7721 [27]): 2.75 - 3.41%; Activity (SMMC-7721 [29]): 1.29 - 4.56%; Activity (SMMC-7721 [30]): Dose-dependent effect; Activity (SMMC-7721 [31]): 6.06 - 6.14%
C=CCSC(=S)N1CCN(C2=C(Br)C(=O)O[C@@H]2O[C@@H]2C[C@H](C)CC[C@H]2C(C)C)CC1 | 5.21 | 7.87 | 21 | 12.9 | 11.2 | 40.7 | -1.9 | 17 | 9.79 | 67.4 | 53.8 | Dose-dependent effect | 60 | 57.4 | 41.7 | 44.5 | 45.6 | IC50 (L02): 45800 nM
CC[C@]1(O)C[C@H]2CN(CCc3c([nH]c4ccccc34)[C@@](C(=O)OC)(c3cc4c(cc3OC)N(C=O)[C@H]3[C@@](O)(C(=O)OC)[C@H](OC(C)=O)[C@]5(CC)C=CCN6CC[C@]43[C@@H]65)C2)C1 [VINCRISTINE] | 1.39 | 12.3 | 23.9 | 16.5 | 11.5 | 45.7 | 1.6 | 17.7 | 7.26 | 68.5 | – | – | – | – | – | – | – | –
COC(=O)CSC(=S)N1CCN(C2=C(Br)C(=O)O[C@@H]2O[C@@H]2C[C@H](C)CC[C@H]2C(C)C)CC1 | 6.98 | 4.41 | 21.4 | 26.6 | 15 | 40.1 | 0.87 | 9.68 | 11.1 | 64.5 | 35.3 | Dose-dependent effect | 320 | 36.9 | 11.3 | 10.9 | 8.57 | –
